The Ki is the equilibrium dissociation constant of an inhibitor or competing ligand from its target. Lower therefore signals higher affinity. The melting point is the temperature, or range, at which the solid turns liquid.

This note sets out measurements from US20060030566A1, “Novel quinoxalinone norepinephrine reuptake inhibitors for the treatment of central nervous system disorders” (Warner-Lambert Company, LLC, priority 2004, published 2006).

Each structure is given as a SMILES string. Structures can show the parent of a compound that is named as a salt.

For data set [1], the target named is T1, human norepinephrine transporter (Homo sapiens, UniProt P23975).
T1 construct: host or cells: HEK-293
T1 sequence (P23975 whole entry): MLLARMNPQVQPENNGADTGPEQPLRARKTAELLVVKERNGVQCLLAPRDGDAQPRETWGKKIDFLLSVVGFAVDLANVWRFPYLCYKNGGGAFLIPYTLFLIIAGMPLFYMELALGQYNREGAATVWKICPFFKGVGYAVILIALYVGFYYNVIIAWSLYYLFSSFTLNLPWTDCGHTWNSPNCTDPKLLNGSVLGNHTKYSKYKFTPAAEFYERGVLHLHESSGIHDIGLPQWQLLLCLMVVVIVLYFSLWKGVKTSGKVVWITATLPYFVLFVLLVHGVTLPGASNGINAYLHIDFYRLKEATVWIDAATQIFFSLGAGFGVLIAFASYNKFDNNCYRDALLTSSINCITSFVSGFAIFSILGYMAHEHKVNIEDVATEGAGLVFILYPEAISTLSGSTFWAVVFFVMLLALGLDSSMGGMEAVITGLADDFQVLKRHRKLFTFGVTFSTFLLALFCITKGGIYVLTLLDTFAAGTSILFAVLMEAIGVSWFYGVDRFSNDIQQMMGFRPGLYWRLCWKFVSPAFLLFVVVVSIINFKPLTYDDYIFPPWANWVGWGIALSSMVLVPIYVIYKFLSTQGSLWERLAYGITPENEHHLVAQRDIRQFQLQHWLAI
The data set can be described thus: hNET receptor binding ([125I]-RTI-55 radioligand binding, membranes of transfected HEK-293 cells). The settings on record: 50 pM [125I]-RTI-55, HEK-293 cell membranes, 90 min at room temperature; IC50 converted to Ki by Cheng-Prusoff equation. The source says:
The ability of the compounds of this invention to bind to the hNET and serotonin SERT receptor can be determined using conventional radioligand receptor binding assays. The receptors can be heterologously expressed in cell lines and experiments conducted in membrane preparations from the cell lines using procedures outlined below. IC50 concentrations can be determined by nonlinear regression of concentration-dependent reduction in specific binding. The Cheng-Prussoff equation can be used to convert the IC50 to Ki concentrations.
Cell pastes of HEK-293 cells transfected with the human norepinephrine transporter were supplied by the Pfizer Ann Arbor Protein Expression and Production group. Pellets were resuspended in 400 to 700 ml of Krebs-HEPES assay buffer (25 mM HEPES, 122 mM NaCl, 3 mM KCl, 1.2 mM MgSO4, 1.3 mM CaCl2, and 11 mM glucose, pH 7.4) with a Polytron homogenizer at setting 7 for 30 sec. Aliquots of membranes (5 mg/ml protein) were stored in liquid nitrogen until used.
The binding assay was set up in Beckman deep-well polypropylene plates with a total volume of 250 μl containing: drug (10^−5M to 10^−12M), cell membranes, and 50 pM [^125I]-RTI-55 (Perkin Elmer, NEX-272; specific activity 2200 Ci/mmol). The reaction was incubated by gentle agitation for 90 min at room temperature and was terminated by filtration through Whatman GF/C filter plates using a Brandel 96-well plate harvester. Scintillation fluid (100 μl) was added to each well, and bound [^125I]-RTI-55 was determined using a Wallac Trilux Beta Plate Counter. Test compounds were run in duplicate, and specific binding was defined as the difference between binding in the presence and absence of 10 μM desipramine.
Excel and GraphPad Prism software were used for data calculation and analysis. IC50 values were converted to Ki values using the Cheng-Prusoff equation.

On to `O=c1c(N2CCCNCC2)nc2ccccc2n1-c1cccc(F)c1` [Example 12, 3-[1,4]Diazepan-1-yl-1-(3-fluoro-phenyl)-1H-quinoxalin-2-one], for which the melting point is 128 to 129 °C. The compound also displayed a Ki in data set [1] of 0.06 µM.
`O=c1c(N2CCNCC2)nc2ccc(F)cc2n1-c1ccccc1` [Example 8, 7-Fluoro-1-phenyl-3-piperazin-1-yl-1H-quinoxalin-2-one] displayed a melting point of 142 to 143 °C. In data set [1], this compound came in with a Ki of 0.059 µM.
`CC(C)n1c(=O)c(N2CCCNCC2)nc2ccccc21` [Example 15, 3-[1,4]Diazepan-1-yl-1-isopropyl-1H-quinoxalin-2-one Maleate] returned a Ki in data set [1] of 0.07 µM.
Compound `O=c1c(N2CCNCC2)nc2cc(F)ccc2n1-c1ccccc1` [Example 1, 6-Fluoro-1-phenyl-3-piperazin-1-yl-1H-quinoxalin-2-one] yielded a melting point of 150 to 152 °C. In data set [1], this compound showed a Ki of 0.012 µM.
`O=c1c(N2CCCNCC2)nc2ccccc2n1-c1ccccc1Cl` (as salt: maleate) [Example 11, 1-(2-Chloro-phenyl)-3-[1,4]diazepan-1-yl-1H-quinoxalin-2-one Maleate] registered a melting point of 159 to 161 °C.
In data set [1], `O=c1c(N2CCNCC2)nc2ccccc2n1-c1ccccc1F` [Example 3, 1-(2-Fluoro-phenyl)-3-piperazin-1-yl-1H-quinoxalin-2-one Hydrochloride] showed a Ki of 0.011 µM.
Take `O=c1c(N2CCNCC2)nc2ccccc2n1-c1ccccc1Cl` [Example 4, 1-(2-Chloro-phenyl)-3-piperazin-1-yl-1H-quinoxalin-2-one]: the melting point was in the range of 135 to 137 °C. In addition, the affinity in data set [1], expressed as Ki, was 0.044 µM.
As for `Cc1ccc(-n2c(=O)c(N3CCCNCC3)nc3ccccc32)cc1` [Example 13, 3-[1,4]Diazepan-1-yl-1-p-tolyl-1H-quinoxalin-2-one Maleate], affinity in data set [1] was put at a Ki of 0.097 µM.
`Cc1ccc(-n2c(=O)c(N3CCNCC3)nc3ccccc32)cc1` [Example 7, 3-Piperazin-1-yl-1-p-tolyl-1H-quinoxalin-2-one Maleate]: the affinity in data set [1] corresponds to a Ki of 0.036 µM.
For `Cc1ccc(-n2c(=O)c(N3CCNCC3)nc3ccccc32)cc1` (as salt: maleate) [Example 7, 3-Piperazin-1-yl-1-p-tolyl-1H-quinoxalin-2-one Maleate], the melting point was in the range of 197 to 199 °C.
On the same count and under the same terms, to `O=c1c(N2CCNCC2)nc2ccccc2n1-c1ccccc1` (as salt: hydrochloride) [Example 2, 1-Phenyl-3-piperazin-1-yl-1H-quinoxalin-2-one Hydrochloride] belongs 290 to 292 °C; to `CC(C)n1c(=O)c(N2CCCNCC2)nc2ccccc21` (as salt: maleate) [Example 15, 3-[1,4]Diazepan-1-yl-1-isopropyl-1H-quinoxalin-2-one Maleate], 147 to 149 °C.
In turn, `O=c1c(N2CCNCC2)nc2cc(F)ccc2n1-c1c(F)cccc1F` [Example 10, 1-(2,6-Difluoro-phenyl)-6-fluoro-3-piperazin-1-yl-1H-quinoxalin-2-one] yielded a melting point of 146 to 147 °C. In data set [1], this compound showed a Ki of 0.015 µM.
`Cc1ccc(-n2c(=O)c(N3CCCNCC3)nc3ccccc32)cc1` (as salt: maleate) [Example 13, 3-[1,4]Diazepan-1-yl-1-p-tolyl-1H-quinoxalin-2-one Maleate] had a melting point of 199 to 200 °C.
Take `O=c1c(N2CCNCC2)nc2ccccc2n1-c1cccc(F)c1` [Example 6, 1-(3-Fluoro-phenyl)-3-piperazin-1-yl-1H-quinoxalin-2-one]: the melting point was in the range of 149 to 150 °C. In data set [1], this compound registered a Ki of 0.038 µM.
Taken in the same sequence, the figures for `Cc1ccc2nc(N3CCNCC3)c(=O)n(-c3ccccc3)c2c1` [Example 9, 7-Methyl-1-phenyl-3-piperazin-1-yl-1H-quinoxalin-2-one] were 166 to 168 °C and 0.082 µM.
Taken in the same sequence, the figures for `Cc1ccccc1-n1c(=O)c(N2CCNCC2)nc2ccccc21` [Example 5, 3-Piperazin-1-yl-1-o-tolyl-1H-quinoxalin-2-one] were 151 to 153 °C and 0.069 µM.
The corresponding values for `O=c1c(N2CCCNCC2)nc2cc(F)ccc2n1-c1ccccc1` [Example 14, 3-[1,4]Diazepan-1-yl-6fluoro-1-phenyl-1H-quinoxalin-2-one] are 151 to 152 °C and 0.027 µM.
For the compound `O=c1c(N2CCNCC2)nc2ccccc2n1-c1ccccc1` [Example 2, 1-Phenyl-3-piperazin-1-yl-1H-quinoxalin-2-one Hydrochloride], the Ki in data set [1] was found to be 0.021 µM.
On the same count and under the same terms, as for `O=c1c(N2CCCNCC2)nc2ccccc2n1-c1ccccc1Cl` [Example 11, 1-(2-Chloro-phenyl)-3-[1,4]diazepan-1-yl-1H-quinoxalin-2-one Maleate], the figure is 0.041 µM.
On to `O=c1c(N2CCNCC2)nc2ccccc2n1-c1ccccc1F` (as salt: hydrochloride) [Example 3, 1-(2-Fluoro-phenyl)-3-piperazin-1-yl-1H-quinoxalin-2-one Hydrochloride], for which the melting point fell in the range of 261 to 263 °C.
